The results in this text go back to patent publication US10752587B2, “Homobispiperidinyl derivatives as liver X receptor beta agonists, compositions and their use” (Merck Sharp & Dohme Corp., priority 2015, dated 2020).

Assay [1] concerns the target T1, glutathione-S-transferase (GST) tagged LXRbeta LBD (ligand binding domain) (Homo sapiens, UniProt P55055).
T1 construct: purchased Invitrogen pv4658.pps
T1 sequence (P55055 222-460 limits assumed): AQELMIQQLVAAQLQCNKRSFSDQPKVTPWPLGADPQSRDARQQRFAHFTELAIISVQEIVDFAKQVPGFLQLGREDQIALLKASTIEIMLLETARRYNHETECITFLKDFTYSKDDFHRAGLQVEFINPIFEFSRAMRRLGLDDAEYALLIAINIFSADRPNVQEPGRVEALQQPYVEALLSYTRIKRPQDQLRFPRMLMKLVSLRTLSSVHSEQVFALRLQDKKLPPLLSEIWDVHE
Kind of assay: LanthaScreen TR-FRET Liver X Receptor Coactivator Assay, co-activator recruitment to LXRbeta LBD. Type of assay: biochemical. To be noted: for EC50: potency (Inflection Point, IP), co-activator recruitment to LXRbeta LBD, in relation to T0901317; for Emax: read-out: LXR beta Activity @ max dose (%). The method in brief: (§1)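 GST-tagged LBD added to test compound, then fluorescein-labelled coactivator peptide plus terbium anti-GST antibody; incubated at room temperature, TR-FRET read. Potency given as inflection point and efficacy as Emax relative to reference dual agonist T0901317.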

Assay [2] addresses T2, glutathione-S-transferase (GST) tagged LXRalpha LBD (ligand binding domain) (Homo sapiens, UniProt Q13133).
T2 construct: purchased Invitrogen pv4655
T2 sequence (Q13133 209-447 limits assumed): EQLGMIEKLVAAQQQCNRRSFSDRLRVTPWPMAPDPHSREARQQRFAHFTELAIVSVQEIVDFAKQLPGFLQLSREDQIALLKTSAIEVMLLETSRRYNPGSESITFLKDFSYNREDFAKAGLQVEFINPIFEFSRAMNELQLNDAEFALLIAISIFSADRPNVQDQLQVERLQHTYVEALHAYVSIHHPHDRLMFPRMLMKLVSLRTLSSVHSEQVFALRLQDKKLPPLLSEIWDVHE
Kind of assay: LanthaScreen TR-FRET Liver X Receptor Coactivator Assay, co-activator recruitment to LXRalpha LBD. In kind it is biochemical. The conditions noted are these: for Emax: efficacy at max dose, in relation to reference dual agonist T0901317, read-out: LXR alpha Activity @ max dose (%); for EC50: read-out: LXR alpha IP. The method in brief: as §1
On the technique in general: In TR-FRET formats the signal depends on donor and acceptor labels being close together.

The mark [3] stands for this setting: potency (Inflection Point, IP), co-activator recruitment to LXRalpha LBD, in relation to T0901317.
The mark [4] stands for this setting: efficacy at max dose, in relation to reference dual agonist T0901317.

Read-outs that look alike come from different tables or passages of the source.

For the compound `COc1cccc([C@@](O)(C(=O)N2CCC(CC3(C)CCN(c4ccc(C(=O)N(C)C)c(Cl)c4)CC3)CC2)C(F)(F)F)c1` [Example 3-1, (R)-2-chloro-N,N-dimethyl-4-(4-methyl-4-((1-(3,3,3-trifluoro-2-hydroxy-2-(3-methoxyphenyl)propanoyl)piperidin-4-yl)methyl)piperidin-1-yl)benzamide], the EC50 in assay [1] (LXR beta IP (nM)) was found to be 35 nM. In addition, the Emax in assay [1] was found to be 63%; in assay [2], 5%. The “LXR alpha IP (nM)” value in assay [2] (setting [3]) is given as “NO IP”.
Consider `O=C(c1ccc(N2CCC(CC3CCN(C(=O)[C@](O)(c4ccccc4)C(F)(F)F)CC3)CC2)cc1Cl)N1CCC1` [Example 4-1, (R)-1-(4-((1-(4-(azetidine-1-carbonyl)-3-chlorophenyl)piperidin-4-yl)methyl)piperidin-1-yl)-3,3,3-trifluoro-2-hydroxy-2-phenylpropan-1-one], for which the Emax in assay [1] (setting [4]) came out at 72%; in assay [2] it was 31%. Moreover, the EC50 in assay [1] (read-out: LXR beta IP) amounted to 53 nM; in assay [2] (setting [3]) it was 555 nM.
For `CC(C)N(C)C(=O)c1ccc(N2CCC(CC3CCN(C(=O)[C@](O)(c4ccccc4)C(F)(F)F)CC3)CC2)cc1Cl` [Example 4-2, 2-chloro-N-methyl-N-(1-methylethyl)-4-[4-({1-[(2R)-3,3,3-trifluoro-2-hydroxy-2-phenyl-propanoyl]piperidin-4-yl}methyl)piperidin-1-yl]benzamide], in that order: 73%, 30%, 29 nM and 270 nM.
For `O=C(c1ccc(N2CCC(CC3CCN(C(=O)[C@](O)(c4ccccc4)C(F)(F)F)CC3)CC2)cc1Cl)N1CCC[C@H]1CO` [Example 4-3, (2R)-3-(4-{[1-(3-chloro-4-{[(2S)-2-(hydroxy-methyl)pyrrolidin-1-yl]carbonyl}phenyl)piperidin-4-yl]methyl}piperidin-1-yl)-1,1,1-trifluoro-3-oxo-2-phenylpropan-2-ol], in that order: 63%, 30%, 5 nM and 50 nM.
On to `O=C(c1ccc(N2CCC(CC3CCN(C(=O)[C@](O)(c4ccccc4)C(F)(F)F)CC3)CC2)cc1Cl)N1CC[C@@H](CO)C1` [Example 4-4, (2R)-3-(4-{[1-(3-chloro-4-{[(3R)-3-(hydroxymethyl)pyrrolidin-1-yl]carbonyl}phenyl)piperidin-4-yl]methyl}piperidin-1-yl)-1,1,1-trifluoro-3-oxo-2-phenylpropan-2-ol], for which the Emax in assay [1] (setting [4]) stood at 56%; in assay [2], 24%. Further, the EC50 in assay [1] (read-out: LXR beta IP) turned out to be 179 nM; in assay [2] (setting [3]), 459 nM.
For `O=C(c1ccc(N2CCC(CC3CCN(C(=O)[C@](O)(c4ccccc4)C(F)(F)F)CC3)CC2)cc1Cl)N1C2CCC1CC2` [Example 4-5, (2R)-3-[4-({1-[4-(7-azabicyclo[2.2.1]hept-7-ylcarbonyl)-3-chlorophenyl]piperidin-4-yl}methyl)piperidin-1-yl]-1,1,1-trifluoro-3-oxo-2-phenylpropan-2-ol], in that order: 53%, 29%, 59 nM and 401 nM.
The like results for `C[C@H]1CCCN1C(=O)c1ccc(N2CCC(CC3CCN(C(=O)[C@](O)(c4ccccc4)C(F)(F)F)CC3)CC2)cc1Cl` [Example 4-6, (2R)-3-(4-{[1-(3-chloro-4-{[(2S)-2-methyl-pyrrolidin-1-yl]carbonyl}phenyl)piperidin-4-yl]methyl}piperidin-1-yl)-1,1,1-trifluoro-3-trifluoro-3-oxo-2-phenylpropan-2-ol] were, in that order, 78%, 39%, 38 nM and 331 nM.
The like results for `O=C(c1ccc(N2CCC(OC3CCN(C(=O)[C@](O)(c4ccccc4)C(F)(F)F)CC3)CC2)cc1Cl)N1CCC[C@H]1CO` [Example 4-7, (2R)-3-(4-{[1-(3-chloro-4-{[(2S)-2-(hydroxy-methyl)pyrrolidin-1-yl]carbonyl}phenyl)piperidin-4-yl]oxy}piperidin-1-yl)-1,1,1-trifluoro-3-oxo-2-phenylpropan-2-ol] were, in that order, 76%, 50%, 31 nM and 516 nM.
For the compound `O=C(c1ccc(N2CCC(CC3CCN(C(=O)[C@](O)(c4ccccc4)C(F)(F)F)CC3)CC2)cc1Cl)N1CC(F)(F)C1` [Example 4-8, (2R)-3-{4-[(1-{3-chloro-4-[(3,3-difluoroazetidin-1-yl)carbonyl]phenyl}piperidin-4-yl)methyl]piperidin-1-yl}-1,1,1-trifluoro-3-oxo-2-phenylpropan-2-ol], the Emax in assay [1] (setting [4]) worked out at 93%; in assay [2] it was 37%. Besides, the EC50 in assay [1] (read-out: LXR beta IP) amounted to 172 nM; in assay [2] (setting [3]), 984 nM.
The like results for `COCCN(C)C(=O)c1ccc(N2CCC(CC3CCN(C(=O)[C@](O)(c4ccccc4)C(F)(F)F)CC3)CC2)cc1Cl` [Example 4-9] were, in that order, 69%, 31%, 17 nM and 195 nM.
For `CN(Cc1ccon1)C(=O)c1ccc(N2CCC(CC3CCN(C(=O)[C@](O)(c4ccccc4)C(F)(F)F)CC3)CC2)cc1Cl` [Example 4-10, 2-chloro-N-(isoxazol-3-ylmethyl)-N-methyl-4-[4-({1-[(2R)-3,3,3-trifluoro-2-hydroxy-2-phenylpropanoyl]piperidin-4-yl}methyl)piperidin-1-yl]benzamide], in that order: 62%, 30%, 8 nM and 246 nM.
For `CN(C(=O)c1ccc(N2CCC(CC3CCN(C(=O)[C@](O)(c4ccccc4)C(F)(F)F)CC3)CC2)cc1Cl)C1CC1` [Example 4-11, 2-chloro-N-cyclopropyl-N-methyl-4-[4-({1-[(2R)-3,3,3-trifluoro-2-hydroxy-2-phenylpropanoyl]piperidin-4-yl}methyl)piperidin-1-yl]benzamide], in that order: 74%, 38%, 43 nM and 402 nM.
As for `CCN(C)C(=O)c1ccc(N2CCC(CC3CCN(C(=O)[C@](O)(c4ccccc4)C(F)(F)F)CC3)CC2)cc1Cl` [Example 4-12, 2-chloro-N-ethyl-N-methyl-4-[4-({1-[(2R)-3,3,3-trifluoro-2-hydroxy-2-phenylpropanoyl]piperidin-4-yl}methyl)piperidin-1-yl]benzamide], the Emax was found to be 83% in assay [1] (setting [4]) and 34% in assay [2]. For the same compound, the EC50 in assay [1] (read-out: LXR beta IP) came out at 14 nM; in assay [2] (setting [3]), 166 nM.
As to `CN(C)CCN(C)C(=O)c1ccc(N2CCC(CC3CCN(C(=O)[C@](O)(c4ccccc4)C(F)(F)F)CC3)CC2)cc1Cl` [Example 4-13, 2-chloro-N-[2-(dimethylamino)ethyl]-N-methyl-4-[4-({1-[(2R)-3,3,3-trifluoro-2-hydroxy-2-phenylpropanoyl]piperidin-4-yl}methyl)piperidin-1-yl]benzamide], the Emax amounted to 62% in assay [1] (setting [4]) and 30% in assay [2]. Moreover, the results for the EC50 in assay [1] (read-out: LXR beta IP) and in assay [2] (setting [3]) were 21 nM and 678 nM, respectively.
